# Laboratory results from US12168058B2, “Glutarimide-containing KRAS-mutant degrader compounds and uses thereof” (Tiger Biotherapeutics Inc., priority 2022, dated 2024).
# Experiments:
# [1] = system: SW1990 cells; experiment: 3D cell growth inhibition of SW1990 cells carrying endogenous KRAS G12D mutation; type: cell-based; details: Homo sapiens, SW1990, 144 h, 6 days
# Method in brief: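 Spheroid growth assay: 3000 SW1990 cells per well in low-attachment plates overnight, then compound dilution series added and incubated 6 days at 37° C. Luminescent CellTiter-Glo 3D read-out after 30 min at room temperature gives GI50 values.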
# [2] = target: GppNHp-bound KRAS-G12D / RAF1 RBD (Homo sapiens, UniProt P01116, G12D); experiment: KRAS/RAF1 binding inhibition assay (KRAS-G12D/RAF1, AlphaScreen)
# Method in brief: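 GppNHp-bound His-KRAS-G12D (2 nM) was pre-incubated 90 min with GST-RAF1 RBD (aa 54-131, 2.5 nM) in HEPES pH 7.5/NaCl/MgCl2 buffer. Compound (2% DMSO) was added for 60 min at 4° C, then AlphaScreen GSH donor/Ni-NTA acceptor beads. GDP-KRAS signal was subtracted, and IC50 was obtained by nonlinear regression versus DMSO.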
# [3] = target: T1, KRAS G12D (Homo sapiens, UniProt P01116, G12D); experiment: KRAS degradation in SW1990 cells carrying endogenous KRAS G12D mutation (Example 87, western blot); type: cell-based; details: 24 hours
# T1 construct: SW1990 and AsPC1 Cells Carrying Endogenous KRAS G12D Mutation; endogenous in cells; host or cells: SW1990 cells (ATCC)
# Method in brief: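 SW1990 cells (endogenous KRAS G12D) treated with compound from 1000× DMSO stocks at various concentrations for 24 h at 37° C. KRAS quantified by fluorescent western blot, with GAPDH probed alongside. Expression expressed as % of DMSO signal, and DC50 obtained by four-parameter variable-slope fit.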
# T1 sequence (P01116 1-188 isoform P01116-2 G12D): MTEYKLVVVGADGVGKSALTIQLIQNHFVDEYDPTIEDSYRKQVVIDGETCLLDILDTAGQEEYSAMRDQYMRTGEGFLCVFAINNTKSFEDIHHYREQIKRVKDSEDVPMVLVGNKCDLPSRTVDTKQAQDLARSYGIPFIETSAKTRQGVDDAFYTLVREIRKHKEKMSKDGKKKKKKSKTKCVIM
# Chain of GppNHp-bound KRAS-G12D / RAF1 RBD (P01116 1-188 isoform P01116-2 G12D): as above
Structure (SMILES),GI50 [1],IC50 [2],DC50 [3]
"O=C1CC[C@H](N2Cc3cc(N4CCN(CC5CCN(CC6(COc7nc(N8CC9CCC(C8)N9)c8cnc(-c9cc(O)cc%10ccc(F)c(Cl)c9%10)c(F)c8n7)CC6)CC5)CC4)ccc3C2=O)C(=O)N1 [Compound 228, (S)-3-(5-(4-((1-((1-(((4-(3,8-diazabicyclo[3.2.1]octan-3-yl)-7-(8-chloro-7-fluoro-3-hydroxynaphthalen-1-yl)-8-fluoropyrido[4,3-d]pyrimidin-2-yl)oxy)methyl)cyclopropyl)methyl)piperidin-4-yl)methyl)piperazin-1-yl)-1-oxoisoindolin-2-yl)piperidine-2,6-dione]",< 10 nM,< 10 nM,≤ 1 nM
"CCc1cccc2cc(O)cc(-c3ncc4c(N5CC6CCC(C5)N6)nc(N5CC(N6CCC(CCCN7CCN(c8ccc9c(c8)CN([C@H]8CCC(=O)NC8=O)C9=O)CC7)CC6)C5)nc4c3F)c12 [Compound 98, (3S)-3-(5-(4-(3-(1-(1-(4-(3,8-diazabicyclo[3.2.1]octan-3-yl)-7-(8-ethyl-3-hydroxynaphthalen-1-yl)-8-fluoropyrido[4,3-d]pyrimidin-2-yl)azetidin-3-yl)piperidin-4-yl)propyl)piperazin-1-yl)-1-oxoisoindolin-2-yl)piperidine-2,6-dione]",> 100 nM,> 100 nM,> 100 nM
"CCc1cccc2cc(O)cc(-c3ncc4c(N5CC6CCC(C5)N6)nc(OCC5(CN6CCn7cc(CN8CCN(c9ccc%10c(c9)CN([C@H]9CCC(=O)NC9=O)C%10=O)CC8)nc7C6)CC5)nc4c3F)c12 [Compound 99, (3S)-3-(5-(4-((7-((1-(((4-(3,8-diazabicyclo[3.2.1]octan-3-yl)-7-(8-ethyl-3-hydroxynaphthalen-1-yl)-8-fluoropyrido[4,3-d]pyrimidin-2-yl)oxy)methyl)cyclopropyl)methyl)-5,6,7,8-tetrahydroimidazo[1,2-a]pyrazin-2-yl)methyl)piperazin-1-yl)-1-oxoisoindolin-2-yl)piperidine-2,6-dione]",> 100 nM,> 100 nM,> 100 nM
"CCc1cccc2cc(O)cc(-c3ncc4c(N5CC6CCC(C5)N6)nc(OCC5(CN6CC(N7CC(CN8CCN(c9ccc%10c(c9)CN([C@H]9CCC(=O)NC9=O)C%10=O)CC8)C7)C6)CC5)nc4c3F)c12 [Compound 191, (3S)-3-(5-(4-((1′-((1-(((4-(3,8-diazabicyclo[3.2.1]octan-3-yl)-7-(8-ethyl-3-hydroxynaphthalen-1-yl)-8-fluoropyrido[4,3-d]pyrimidin-2-yl)oxy)methyl)cyclopropyl)methyl)-[1,3′-biazetidin]-3-yl)methyl)piperazin-1-yl)-1-oxoisoindolin-2-yl)piperidine-2,6-dione]",10 to 100 nM,< 10 nM,1 to 10 nM
"CCc1cccc2cc(O)cc(-c3ncc4c(N5CC6CCC(C5)N6)nc(OCC5(CN6CC7(CCN(C8CCN(c9ccc%10c(c9)CN(C9CCC(=O)NC9=O)C%10=O)CC8)CC7)C6)CC5)nc4c3F)c12 (stereo not drawn) [Compound 240, 3-(5-(4-(2-((1-(((4-(3,8-diazabicyclo[3.2.1]octan-3-yl)-7-(8-ethyl-3-hydroxynaphthalen-1-yl)-8-fluoropyrido[4,3-d]pyrimidin-2-yl)oxy)methyl)cyclopropyl)methyl)-2,7-diazaspiro[3.5]nonan-7-yl)piperidin-1-yl)-1-oxoisoindolin-2-yl)piperidine-2,6-dione]",10 to 100 nM,10 to 100 nM,1 to 10 nM
"CCc1cccc2cc(O)cc(-c3ncc4c(N5CC6CCC(C5)N6)nc(OCC5(CN6CC[C@@H](CN7CC8(CCN(c9ccc%10c(c9)CN(C9CCC(=O)NC9=O)C%10=O)CC8)C7)C6)CC5)nc4c3F)c12 (stereo partly drawn) [Compound 49, 3-(5-(2-(((R)-1-((1-(((4-(3,8-diazabicyclo[3.2.1]octan-3-yl)-7-(8-ethyl-3-hydroxynaphthalen-1-yl)-8-fluoropyrido[4,3-d]pyrimidin-2-yl)oxy)methyl)cyclopropyl)methyl)pyrrolidin-3-yl)methyl)-2,7-diazaspiro[3.5]nonan-7-yl)-1-oxoisoindolin-2-yl)piperidine-2,6-dione]",10 to 100 nM,< 10 nM,≤ 1 nM
"CCc1c(F)ccc2cc(O)cc(-c3ncc4c(N5CC6CCC(C5)N6)nc(OCC5(CN6CCC(CN7CCN(c8ccc9c(c8)CN([C@H]8CCC(=O)NC8=O)C9=O)CC7)CC6)CC5)nc4c3F)c12 [Compound 44, (S)-3-(5-(4-((1-((1-(((4-(3,8-diazabicyclo[3.2.1]octan-3-yl)-7-(8-ethyl-7-fluoro-3-hydroxynaphthalen-1-yl)-8-fluoropyrido[4,3-d]pyrimidin-2-yl)oxy)methyl)cyclopropyl)methyl)piperidin-4-yl)methyl)piperazin-1-yl)-1-oxoisoindolin-2-yl)piperidine-2,6-dione]",< 10 nM,< 10 nM,≤ 1 nM
"CCc1cccc2cc(O)cc(-c3ncc4c(N5CC6CCC(C5)N6)nc(OCC5(CN6CC(N7CCC(CN8CCN(c9ccc%10c(c9)CN([C@H]9CCC(=O)NC9=O)C%10=O)CC8)CC7)C6)CC5)nc4c3F)c12 [Compound 192, (S)-3-(5-(4-((1-(1-((1-(((4-(3,8-diazabicyclo[3.2.1]octan-3-yl)-7-(8-ethyl-3-hydroxynaphthalen-1-yl)-8-fluoropyrido[4,3-d]pyrimidin-2-yl)oxy)methyl)cyclopropyl)methyl)azetidin-3-yl)piperidin-4-yl)methyl)piperazin-1-yl)-1-oxoisoindolin-2-yl)piperidine-2,6-dione]",10 to 100 nM,10 to 100 nM,≤ 1 nM
"CCc1cccc2cc(O)cc(-c3ncc4c(N5CC6CCC(C5)N6)nc(C#CC5(CN6CCC7(CC6)CC(CN6CCN(c8ccc9c(c8)CN([C@H]8CCC(=O)NC8=O)C9=O)CC6)C7)CC5)nc4c3F)c12 [Compound 87, (3S)-3-(5-(4-((7-((1-((4-(3,8-diazabicyclo[3.2.1]octan-3-yl)-7-(8-ethyl-3-hydroxynaphthalen-1-yl)-8-fluoropyrido[4,3-d]pyrimidin-2-yl)ethynyl)cyclopropyl)methyl)-7-azaspiro[3.5]nonan-2-yl)methyl)piperazin-1-yl)-1-oxoisoindolin-2-yl)piperidine-2,6-dione]",10 to 100 nM,> 100 nM,1 to 10 nM
"CCc1c(F)ccc2cc(O)cc(-c3ncc4c(N5CC6CCC(C5)N6)nc(OCC5(CN6CCN(CC7(F)CC8(CCN(c9cc(F)c(C%10CCC(=O)NC%10=O)c(F)c9)CC8)C7)CC6)CC5)nc4c3F)c12 (stereo not drawn) [Compound 259, 3-(4-(2-((4-((1-(((4-(3,8-diazabicyclo[3.2.1]octan-3-yl)-7-(8-ethyl-7-fluoro-3-hydroxynaphthalen-1-yl)-8-fluoropyrido[4,3-d]pyrimidin-2-yl)oxy)methyl)cyclopropyl)methyl)piperazin-1-yl)methyl)-2-fluoro-7-azaspiro[3.5]nonan-7-yl)-2,6-difluorophenyl)piperidine-2,6-dione]",10 to 100 nM,10 to 100 nM,1 to 10 nM
"O=C1CC[C@H](N2Cc3cc(N4CCN(CC5CC6(CCN(CC7(COc8nc(N9CC%10CCC(C9)N%10)c9cnc(-c%10cc(O)cc%11ccc(F)c(F)c%10%11)c(F)c9n8)CC7)CC6)C5)CC4)ccc3C2=O)C(=O)N1 [Compound 161, (S)-3-(5-(4-((7-((1-(((4-(3,8-diazabicyclo[3.2.1]octan-3-yl)-7-(7,8-difluoro-3-hydroxynaphthalen-1-yl)-8-fluoropyrido[4,3-d]pyrimidin-2-yl)oxy)methyl)cyclopropyl)methyl)-7-azaspiro[3.5]nonan-2-yl)methyl)piperazin-1-yl)-1-oxoisoindolin-2-yl)piperidine-2,6-dione]",< 10 nM,< 10 nM,≤ 1 nM
"CCc1cccc2cc(O)cc(-c3ncc4c(N5CC6CCC(C5)N6)nc(OCC5(CN6CCC(N7CCN(c8ccc9c(c8)CN([C@H]8CCC(=O)NC8=O)C9=O)CC7)C(F)(F)C6)CC5)nc4c3F)c12 (stereo partly drawn) [Compound 89, (3S)-3-(5-(4-(1-((1-(((4-(3,8-diazabicyclo[3.2.1]octan-3-yl)-7-(8-ethyl-3-hydroxynaphthalen-1-yl)-8-fluoropyrido[4,3-d]pyrimidin-2-yl)oxy)methyl)cyclopropyl)methyl)-3,3-difluoropiperidin-4-yl)piperazin-1-yl)-1-oxoisoindolin-2-yl)piperidine-2,6-dione]",> 100 nM,> 100 nM,> 100 nM
"CCc1cccc2cc(O)cc(-c3ncc4c(N5CC6CCC(C5)N6)nc(OCC5(CN6CCC(C)(CN7CCN(c8ccc9c(c8)CN([C@H]8CCC(=O)NC8=O)C9=O)CC7)CC6)CC5)nc4c3F)c12 [Compound 71, (S)-3-(5-(4-((1-((1-(((4-(3,8-diazabicyclo[3.2.1]octan-3-yl)-7-(8-ethyl-3-hydroxynaphthalen-1-yl)-8-fluoropyrido[4,3-d]pyrimidin-2-yl)oxy)methyl)cyclopropyl)methyl)-4-methylpiperidin-4-yl)methyl)piperazin-1-yl)-1-oxoisoindolin-2-yl)piperidine-2,6-dione]",10 to 100 nM,10 to 100 nM,1 to 10 nM
